Data on two compounds can be found in patent US10780094B2, “Use of carbonic anhydrase inhibitors for treatment of neurological and psychiatric disorders” (New York University, priority 2016, dated 2020).

Molecules are shown by their SMILES.

For test [1], the system named is mitochondria isolated from SH-SY5Y neuronal cells. Put plainly: Mitochondrial H2O2 production (Amplex Red) after Aβ challenge. The format is cell-based, human. Conditions: for Aβ-induced H2O2 production: Example 2, both drugs at the proposed concentrations. The procedure: Production of H2O2 from isolated mitochondria was measured using Amplex Red Hydrogen Peroxide/Peroxidase Assay (Life Technologies). Cells were treated with Aβ peptides, in the presence or absence of MTZ. After 16 hours of treatment, the mitochondrial fraction was separated from nuclear and cytoplasmic fractions as previously described (Fossati et al., 2013). Protein concentration in the mitochondrial fraction was measured by BCA assay (Thermo Scientific, Rockford, Ill.), in order to include the same amount of mitochondria in each sample. Functional mitochondrial fractions were distributed in a 96 well plate with Reaction Buffer and Amplex Red solution following the manufacturer's specifications. The plate was incubated in the dark at room temperature for 30 minutes before colorimetric evaluation of the Amplex Red reaction at 560 nm.
Cells were plated on 6-wells plates and treated with the peptides and/or drugs for the experimental times. Plates were centrifuged for 10 min at 1.000 RPM and washed twice with PBS 1×. After that, 500 μL of homogenization buffer (75 mM sucrose, 225 mM mannitol, 5 mM Tris-HCl pH=7.4, 1 mM PMSF and protease inhibitor cocktail) was added. Cells were scraped in this buffer, collected in glass tubes and grinded exactly 80 times with a pellet pestle, keeping everything always on ice. Cells were then centrifuged at 2.800 RPM for 5 min at 4° C. The supernatant was collected and centrifuged again at 2.800 RPM for 5 min at 4° C. The supernatant was again collected and centrifuged at 10.500 RPM for another 5 min at 4° C. After this, the supernatant was discarded and the pellet was re-suspended in 100 μL of homogenization buffer. The samples were centrifuged again at 10.500 RPM for 10 min at 4° C., the supernatant was discarded and the pellets (mitochondrial fractions) were re-suspended on 50 μL of homogenization buffer. A protein concentration assay on mitochondrial protein was performed, using the Pierce BCA Protein Assay Kit (ThermoFisher, Waltham, Mass., US) and following the instructions provided by the manufacturer. After that, mitochondrial fractions containing equal amounts of mitochondrial proteins were placed on 96-wells microplate absorbance microtiter (ThermoFisher, Waltham, Mass., US) and the AmplexRed assay was ran, following the instructions provided by the manufacturer. Absorbance was measured by using a FlexStation (Molecular Devices, Sunnyvalem Calif., US).

Another test concerns hCMEC/D3 cells (D3). Briefly: Cell Death ELISAplus, Aβ-induced apoptosis. Type of test: cell-based, human. The following applies: Example 2/3; Aβ40-Q22 challenge; FIG. 17B, 21. On the procedure: 20.000 cells per well were plated on 24-wells plates. The day after, cells were treated with peptides and/or drugs, following the experimental conditions.
20,000 cells per well were plated on 24-wells plates. The day after, cells were treated with peptides and/or drugs, following the experimental conditions.

The next test relates to TgSwDI mice. Put plainly: Brain immunostaining and Thioflavin S staining in a model of vascular and parenchymal amyloidosis. Type of test: in vivo, mouse. Conditions: for Aβ and GFAP staining, dentate gyrus (hippocampus) / GFAP and Aβ staining and their colocalization, cortex / co-localization of Aβ staining with glial cells, dentate gyrus / gliosis and amyloidosis, thalamic region: 16 month-old mice treated for 8 months; for amyloid deposits in the cortex and thalamic region (Thioflavin S) / hippocampal deposition of Amyloid beta (Thioflavin S) / amyloid load in the brain (Thioflavin S): 16 months old, diet 8 months; for amyloid load in the brain (Thioflavin S): 15-20 mg/kg/day. The procedure:
The animals were sacrificed by trans-cardiac perfusion (medium flow pump, Fisher Scientific 13-876-2, 10 ml/min flow rate) with PBS for 2 minutes followed by 4% paraphormaldehyde for 5 minutes. Brains were then removed from the skull and postfixed in 4% paraphormaldehyde for 2 h at 4° C. […] Brains were then washed in PBS, assembled in a plastic mold with Tissue-Tek O.C.T. compound (Fisher Scientific), and frozen with a mixture of liquid nitrogen and isopenthanol. Serial cryostat sections of 8 μm thickness were collected on positively charged microscope slides (Fisher Scientific) and stored at −80° C. until further immunohistochemical analysis.
For immunohistochemical staining, slices were warmed to RT for 5′ prior to use, rinsed in PBS and blocked with Mouse on Mouse (MOM) blocking reagent (2 drops in 2.5 ml of PBS, Vector Laboratories, Burlingame, Calif.) for 20 minutes. Incubation with the rabbit monoclonal antibody against active caspase-3 (Cell Signaling Technology) was performed overnight at 4° C. in PBS containing 0.1% triton X-100 and 5 mg/ml BSA. The day after, the sections were washed three times with PBS and incubated in Alexa Fluor 488- or 633-conjugated anti-rabbit IgG (Life Technologies; 1:200 in PBST with 5 mg/ml BSA; 1 h at RT), followed by primary anti-Aβ 6E10 (1:200 in PBS+MOM for 2 hours at RT), and by secondary Alexa Fluor 568 anti-mouse IgG. Finally, the slices were washed and the DNA counterstained with TO-PRO (Life Technologies) 1:1000 for 10 min, or with NeuN green neuronal staining (1:100 in PBS for 1 hour, Millipore, Temecula, Calif.). For staining of active microglial cells, tissue sections were incubated with anti IBA1 goat antibody (Abcam, Cambridge, Mass.) 1:200 in PBS containing 0.1% Triton and 5 mg/ml BSA for 1 hour, followed by Alexa Fluor 488 anti-goat IgG (1 hour). For astrocytes, brain slices were stained with GFAP antibody (Fisher Scientific 1:200).
Total fibrillar Aβ burden (parenchymal and vascular) and CAA burden (Aβ burden in the vasculature) were evaluated separately in sections stained with Thioflavin-S, using methods described previously (Scholtzova et al., J Neurosci 2009, 29: 1846-1854).
After washing, slides were mounted with an aqueous mounting medium (Vector Laboratories). Images were acquired in a Zeiss LSM 510 confocal microscope using 40× or 100× oil lens and processed using Image J and Adobe Photoshop. Images were acquired maintaining constant exposure for all samples across single experiments. For quantifications, stained brain slices corresponding to the injection site area of 3 or more animals were quantified with Image J. The total area of NeuN, caspase 3, Aβ and IBA1 positive cells was quantified and compared between different treatments.

Test [2] relates to SH-SY5Y and D3 cell cultures. Put plainly: Intracellular pH measurement (pHrodo). The following applies: MTZ 100 and 300 μM, AZT 30 and 100 μM; 3 and 12 hours; with and without peptide. Type of test: cell-based, human. The procedure:
Cells were plated on 96-wells microplate fluorescence microtiter (ThermoFisher, Waltham, Mass., US). The day after, cells were treated with the different drugs and/or peptides. After this, intracellular pH measurement was performed by using the pHrodo red AM kit, following the indications provided by the manufacturer.

Setting [3] is: drugs in diet from 5-6 months of age, sacrificed at 9 months.

For the compound `CC(=O)Nc1nnc(S(N)(=O)=O)s1` [ATZ, acetazolamide], in test [1], the “Aβ-induced H2O2 production” value is given as “completely reverted”. In the test on hCMEC/D3 cells (D3), the “apoptosis in response to Aβ” value is listed as “prevented”. For the same compound, in the test with TgSwDI mice, the “Aβ and GFAP staining, dentate gyrus (hippocampus)” value was “both Aβ and GFAP were reduced”; the “GFAP and Aβ staining and their colocalization, cortex” value is recorded as “significant reduction”; the “co-localization of Aβ staining with glial cells, dentate gyrus” value is listed as “not co-localized within glial cells”; the “gliosis and amyloidosis, thalamic region” value is “decreased gliosis (green) and amyloidosis (red)”. Moreover, in the test on TgSwDI mice, the “amyloid deposits in the cortex and thalamic region (Thioflavin S)” value is reported as “reduced deposition”; the “hippocampal deposition of Amyloid beta (Thioflavin S)” value is given as “decrease”; the “amyloid load in the brain (Thioflavin S)” value is “reduced”. Moreover, the “increase in caspase 3 activation induced by Aβ, hippocampus” value in the test on TgSwDI mice (setting [3]) is “inhibited”. Also, the “intracellular pH values” in test [2] was “did not show any significant changes”.
Turning to `CC(=O)/N=c1/sc(S(N)(=O)=O)nn1C` [MTZ, methazolamide], the “Aβ-induced increase in H2O2 production by isolated mitochondria” value in test [1] (Example 1, Aβ with MTZ) was “completely reverted”. Further, in test [1], the “Aβ-induced H2O2 production” value is listed as “completely reverted”. In test [1] (MTZ alone, untreated cells), the “H2O2 production, drug alone” value is given as “did not have any effect”. In the test on hCMEC/D3 cells (D3), the “apoptosis in response to Aβ” value is reported as “prevented”. Further, in the test on TgSwDI mice, the “Aβ and GFAP staining, dentate gyrus (hippocampus)” value is “both Aβ and GFAP were reduced”; the “GFAP and Aβ staining and their colocalization, cortex” value is reported as “significant reduction”; the “co-localization of Aβ staining with glial cells, dentate gyrus” value is recorded as “not co-localized within glial cells”; the “gliosis and amyloidosis, thalamic region” value was “decreased gliosis (green) and amyloidosis (red)”. In the test with TgSwDI mice, the “amyloid deposits in the cortex and thalamic region (Thioflavin S)” value was “reduced deposition”; the “hippocampal deposition of Amyloid beta (Thioflavin S)” value was “decrease”; the “amyloid load in the brain (Thioflavin S)” value is on record as “reduced”. For the same compound, in the test with TgSwDI mice (setting [3]), the “Aβ deposition, hippocampus” value is given as “reduction in Aβ deposition” and the “increase in caspase 3 activation induced by Aβ, hippocampus” value was “inhibited”. Besides, the “intracellular pH values” in test [2] is recorded as “did not show any significant changes”.
